Reference: patent US11447512B2 (Shenzhen TargetRx, Inc., priority 2017, dated 2022)
Where a name gives a salt, the structure may show the parent alone. Read-outs that look alike come from different tables or passages of the source.

Columns and labels:
[1] = Human liver microsome metabolic stability; type: in vitro ADME; settings: pH 7.4, 1 μM compound, 0.5 mg/mL protein, NADPH; for microsomal CLint at 1 μM / microsomal CLint: read-out: Human liver microsome experiment CLint; for half-life at 1 μM / half-life: read-out: Human liver microsome experiment t1/2
Protocol: (§1) Microsomal experiments: human liver microsomes: 0.5 mg/mL, Xenotech; rat liver microsomes: 0.5 mg/mL, Xenotech; coenzyme (NADPH/NADH): 1 mM, Sigma Life Science; magnesium chloride: 5 mM, 100 mM phosphate buffer (pH 7.4).
(§2) Preparation of stock solution: powder of Example compounds were precisely weighed and dissolved in DMSO to 5 mM.
(§3) Preparation of phosphate buffer (100 mm, pH7.4): 0.5M pre-formulated potassium dihydrogen phosphate (150 ml) and 0.5M potassium hydrogen phosphate (700 ml) were mixed well. The pH of the mixture was then adjusted to 7.4 with 0.5M potassium hydrogen phosphate solution. The resulting solution was 5-fold diluted with ultrapure water before use, and magnesium chloride was added to the solution, affording a phosphate buffer (100 mm), containing potassium phosphate (100 mM), magnesium chloride (3.3 mM), pH 7.4.
(§4) A NADPH regeneration system solution (containing 6.5 mM NADP, 16.5 mM G-6-P, 3 U/mL G-6-P D, 3.3 mM magnesium chloride) was formulated, which was placed on wet ice before use.
(§5) Preparation of stop solution: 50 ng/mL of propranolol hydrochloride and 200 ng/mL of tolbutamide (internal standard) in acetonitrile. 25057.5 μL of phosphate buffer (pH 7.4) was placed to a 50 mL centrifuge tube, and 812.5 μL human liver microsomes were added to the tube, which were mixed well to give a protein concentration of 0.625 mg/mL liver microsomes diluent. 25057.5 μL of phosphate buffer (pH 7.4) was placed to a 50 ml centrifuge tube, and 812.5 μL SD rat liver microsomes were added to the tube, which were mixed well to give a protein concentration of 0.625 mg/mL liver microsomes diluent.
(§6) Incubation of the sample: the stock solution of the corresponding compounds was diluted to 0.25 mM with 70% acetonitrile in water as a working solution for later use. 398 μL of human liver microsomes dilution or rat liver microsomes dilution was added into 96-well incubation plate (N=2), and 2 μL of 0.25 mM working solution was added to the plate, which were mixed well.
(§7) Metabolic stability assay: 300 μL of pre-chilled stop solution was added to each well of a 96-well deep-well plate and the plate was placed on ice as a stop plate. The 96-well incubation plate and NADPH regeneration system were placed in a 37° C. water bath, shaked at 100 rpm, pre-incubated for 5min. 80 μL of incubation solution was taken from each well of the incubation plate and was added to the stop plate, which were mixed well. 20 μL of NADPH regeneration system solution was supplemented into the mixture to form the 0 min sample. Then 80 μL of NADPH regeneration system solution was added to each well of the incubation plate to initiate the reaction and start timing. The reaction concentration of the corresponding compound was 1 μM, and the protein concentration was 0.5 mg/mL. At 10, 30, and 90 min, 100 μL of the reaction solution was added to the stop plate and vortexed for 3 min to quench the reaction. The stop plate was centrifuged at 5000×g at 4° C. for 10 min. 100 μL of supernatant was taken into a 96-well plate containing 100 μL of distilled water, which were mixed well. LC-MS/MS was used for sample analysis.
(§8) Data analysis: The peak area of the corresponding compounds and internal standard was detected by LC-MS/MS system, and the peak area ratio of compounds to internal standard was calculated. The slope was measured by plotting the natural log of the percentage of the remaining amount of the compounds versus time, and t1/2 and CLint were calculated according to the following formula, where V/M is equal to 1/protein concentration.

[2] = Cytotoxicity experiment of the anti-HBV test (Cell-titer Blue); type: cell-based; settings: human, six days after treatment
[3] = Rat liver microsome metabolic stability; type: in vitro ADME; settings: SD, pH 7.4, 1 μM compound, 0.5 mg/mL protein, NADPH; for microsomal CLint at 1 μM / microsomal CLint: read-out: Rat liver microsome experiment CLint; for half-life at 1 μM / half-life: read-out: Rat liver microsome experiment t1/2
Protocol: as §1, §2, §3, §4, §5, §6, §7, §8

[4] = tested on: HIV-1; test: microbe, parasite or virus in culture; settings: Human immunodeficiency virus 1, MT4, 120 h, read-out: HIV activity and cytotoxicity data EC50 (nM)
Protocol: The data was analyzed by GraphPad Prism software, and the curve was fitted and EC50 and CC50 values were calculated. EC50 refers to the effective concentration that inhibits 50% virus production, 50% virus infectivity, or 50% virus-induced cellular effects. CC50 refers to the inhibitory concentration that reduces the cell growth or viability of uninfected cells by 50%.
Compound treatment: the test compounds and the reference compounds were 2-fold diluted with DMSO and added to the cell culture plate. The test compounds and the reference compounds were tested at 8 concentrations in duplicate.
Viral infection and cell treatment: HIV-1 and MT-4 cells were co-incubated at 37° C., in an incubator with 5% CO2 for 1 h. The infected cells were then seeded in a cell culture plate at a certain density. The final concentration of DMSO in the cell culture medium was 0.5%. The cells were incubated at 37° C., in an incubator with 5% CO2 for 5 days. The cells tested in the cytotoxicity assay were uninfected MT-4 cells, and other test conditions were with the same as that of the antiviral activity assay.
The activity assay of the cell: the cell viability was tested by using cell viability assay Reagent CellTiter-glo (Promega). The raw data was used for calculating the anti-HIV-1 activity and cytotoxicity of the Compounds.

[5] = Cytotoxicity in uninfected MT-4 cells (CellTiter-glo); type: cell-based; settings: human, read-out: HIV activity and cytotoxicity data CC50; for CC50: 5 days
Protocol: The data was analyzed by GraphPad Prism software, and the curve was fitted and EC50 and CC50 values were calculated. […] CC50 refers to the inhibitory concentration that reduces the cell growth or viability of uninfected cells by 50%.

[6] = tested on: HBV; test: In vitro anti-HBV activity in HepG2.2.15 cells (HBV DNA by quantitative PCR); type: cell-based; settings: Hepatitis B virus
Protocol: Experimental method: anti-HBV activity of compounds was detected by Bright-Glo (Promega) luciferase.
Anti-cell viability assay: in vitro anti-hepatitis b virus activity of Example compounds was tested in HepG2.2.15 cells with TDF as a positive control compound. Cells were seeded into a 96-well plate on the first day; the compounds were added to treat the cells on the next day; and a new culture medium containing the compounds was replaced on the fifth day. On the eighth day, the supernatant was collected for DNA extraction. The content of HBV DNA was detected by quantitative PCR. Both test compound and TDF were subjected to a 3-fold serial dilution to get 8 concentration points in duplicate. The final concentration of DMSO in the culture medium was 0.5%. The formula for calculating the percentage of inhibition is as follows: Inhibition rate=(1−copy number of HBV in sample/copy number of HBV in DMSO control group)×100%
EC50 is analyzed by Graphpad Prism software (four parameter logistic equations), wherein I represents EC50≤50 nM, II represents 50 nM≤EC50≤200 nM, III represents 200 nM<EC50≤500 nM, IV represents EC50>500 nM (as shown in Table 1 below).

[7] = relative to TDF; cited from earlier work
[8] = relative to TDF; cited from earlier work; remark: listed apart in the source
[9] = HepG2.2.15 cells, HBV DNA in supernatant on the eighth day, read-out: HBV activity and cytotoxicity data EC50

| Structure (SMILES) | microsomal CLint at 1 μM ([1]; human liver microsomes) [µL/min/mg] | half-life at 1 μM ([1]; human liver microsomes) [min] | CC50 at 6 days ([2]; HepG2.2.15 cells) [nM] | microsomal CLint at 1 μM ([3]; rat liver microsomes) [µL/min/mg] | half-life at 1 μM ([3]; rat liver microsomes) [min] | EC50 [4] [nM] | CC50 at 5 days [5] [nM] | EC50 [6, 9] [nM] | microsomal CLint ([1]; microsomes) [µL/min/mg] | half-life ([1]; microsomes) [min] | CC50 [2] [nM] | microsomal CLint ([3]; microsomes) [µL/min/mg] | half-life ([3]; microsomes) [min] | CC50 [5] [nM] | other results |
| --- | --- | --- | --- | --- | --- | --- | --- | --- | --- | --- | --- | --- | --- | --- | --- |
| CCCCCCCCCCCCCCCCOCCCOP(=O)(CO[C@H](C)Cn1cnc2c(N)ncnc21)N[C@@H](C)C(=O)SC(C)C (stereo partly shown) [Compound T-7] | 84.4 | 16.4 | 7000 to 50000 | 50.8 | 27.3 | < 5 | 3000 to 10000 | 50 to 200 |  |  |  |  |  |  |  |
| CC(C)OC(=O)[C@H](C)NP(=S)(CO[C@H](C)Cn1cnc2c(N)ncnc21)Oc1ccccc1 (stereo partly drawn) [Compound T-3, 9-{(R)-2-[({[(S)-1-(isopropoxycarbonyl)ethyl]amino}phenoxythiophosphoryl)methoxy]lpropyl}adenine] |  |  |  |  |  | 5 to 20 | 3000 to 10000 |  |  |  |  |  |  |  | microsomal CLint at 1 μM ([1]; microsomes): 285 µL/min/mg; half-life at 1 μM ([1]; microsomes): 4.9 min; CC50 at 6 days [2]: > 50000 nM; microsomal CLint at 1 μM ([3]; microsomes): 82.5 µL/min/mg; half-life at 1 μM ([3]; microsomes): 16.8 min; EC50 ([6]; HepG2.2.15, read-out: HBV activity and cytotoxicity data EC50 (nM)): 50 to 200 nM |
| CCCCCCCCCCCCCCCCOCCCOP(=O)(CO[C@H](C)Cn1cnc2c(N)ncnc21)OCOC(=O)SC(C)C (stereo partly drawn) [Compound T-5, (R)-9-{2-[(hexadecyloxypropyl)(isopropylsulfanylcarbonyloxymethyl)phosphorylmethoxy]propyl}adenine] | 42.7 | 32.5 | > 50000 | 56.6 | 24.5 | 5 to 20 | > 50000 | 50 to 200 |  |  |  |  |  |  |  |
| CC(C)OC(=O)[C@H](C)N[P@](=O)(CO[C@H](C)Cn1cnc2c(N)ncnc21)Oc1ccccc1 [TAF, Tenofovir Alafenamide Fumarate] |  |  |  |  |  |  |  |  |  |  |  |  |  |  | concentration of TFV in plasma metabolized by TAF, lower than that of TDF [7]: 90%; concentration of TFV in immune cells metabolized by TAF, higher than that of TDF [8]: 4 times |
| CCCCCCCCCCCCCCCCOCCCOP(=S)(CO[C@H](C)Cn1cnc2c(N)ncnc21)N[C@@H](C)C(=O)OC(C)C (stereo partly shown) [Compound T-6] |  |  |  |  |  | > 500 |  | 200 to 500 | 12.9 | 107 | 7000 to 50000 | 9.9 | 140 | 3000 to 10000 |  |
| CCCCCCCCCCCCCCCCOCCCOP(=S)(CO[C@H](C)Cn1cnc2c(N)ncnc21)OCOC(=O)OC(C)C (stereo partly drawn) [Compound T-4, (R)-9-{2-[(hexadecyloxypropyl)(isopropylcarbonatemethyl)thiophosphorylmethoxy]propyl}adenine] |  |  |  |  |  | > 500 |  | > 500 | 116 | 11.9 | > 50000 | 68.5 | 20.2 | > 50000 |  |
| CC(=O)SCCOP(=O)(CO[C@H](C)Cn1cnc2c(N)ncnc21)OCOC(=O)OC(C)C (stereo partly drawn) [Compound T-8, (R)-9-{2-[(acetylsulfanylethyl)(isopropylcarbonatemethyl)phosphorylmethoxy]propyl}adenine] | 84.1 | 16.5 | > 50000 | 92.7 | 14.9 | 20 to 100 | 10000 to 50000 | 200 to 500 |  |  |  |  |  |  |  |
| CCCCCCCCCCCCCCCCOCCCOP(O)(=S)CO[C@H](C)Cn1cnc2c(N)ncnc21 (stereo partly shown) [Compound T-1] |  |  |  |  |  | 5 to 20 |  | < 50 | 45.6 | 3.04 | 7000 to 50000 | 5.6 | 249 | 3000 to 10000 |  |
